According to patent publication US20050025809A1, “Poly-4-hydroxybutyrate matrices for sustained drug delivery” (Tepha, Inc., priority 2003, published 2005):
Like-named read-outs stand apart in the source and are kept apart here.

Experiments:
[1] = Drug release from PHA3444 rods in PBS; type: physicochemical; conditions: PHA3444-34%:drug 2:1 rods
Excerpt: The paste was then introduced into a mold measuring 150×5×5 mm, and left to dry at ambient temperature.

[2] = PHA4400 loaded 10:1, PBS pH 7.4, 37° C.

SMILES: CN(C)[C@@H]1C(O)=C(C(N)=O)C(=O)[C@@]2(O)C(O)=C3C(=O)c4c(O)cccc4[C@@](C)(O)[C@H]3C[C@@H]12 [TCN, Tetracycline (neutral)]
- average cumulative release (PHA4400:drug 2:1 rods, PBS pH 7.4, 37° C., at 11 days): ~9%
- burst of release [2]: no burst
- release order [2]: almost perfect zero order release after the first hour
- total release (PHA4400 loaded 10:1, in fifteen days): 17%
- burst of release [1]: No burst of release was observed
- average cumulative release ([1]; PBS pH 7.4, 37° C., at 17 days): ~23%
